Assay results: PubChem BioAssay (NCI)
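Tested at 5 concentrations; 48 h exposure; 96-well plates; endpoints linearly interpolated, else capped at highest concentration. At the GI50, growth is halved. TGI: total growth inhibition.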

What was measured:
Assay in all cases: DTP human tumour cell line panel, 48 h
SF-295 CNS = system: SF-295 CNS
HT29 colon = system: HT29 colon
RPMI-8226 leukemia = system: RPMI-8226 leukemia
SF-539 CNS = system: SF-539 CNS
ACHN renal = system: ACHN renal
HOP-62 NSCLC = system: HOP-62 NSCLC
HCT-15 colon = system: HCT-15 colon
COLO 205 colon = system: COLO 205 colon
IGROV1 ovarian = system: IGROV1 ovarian

Cc1cn2c(C)csc2c1P(=O)(OC(C)C)OC(C)C
TGI (SF-295 CNS): > 100 µM | TGI (HT29 colon): > 100 µM | TGI (RPMI-8226 leukemia): > 100 µM | TGI (SF-539 CNS): > 100 µM | TGI (ACHN renal): > 100 µM | TGI (HOP-62 NSCLC): > 100 µM | TGI (HCT-15 colon): > 100 µM | TGI (COLO 205 colon): > 100 µM | TGI (IGROV1 ovarian): > 100 µM

CCOC(CN(C)C(=S)Nc1cccc2ccccc12)OCC
TGI (SF-295 CNS): > 10 µM | TGI (HT29 colon): > 10 µM | TGI (RPMI-8226 leukemia): > 10 µM | TGI (SF-539 CNS): > 10 µM | TGI (ACHN renal): > 10 µM | TGI (HOP-62 NSCLC): > 10 µM | TGI (HCT-15 colon): > 10 µM | TGI (COLO 205 colon): > 10 µM | TGI (IGROV1 ovarian): > 10 µM

O/C(=C\c1nc2ccccc2nc1NC12CC3CC(CC(C3)C1)C2)c1ccc(Br)cc1
TGI (SF-295 CNS): > 10 µM | TGI (HT29 colon): > 10 µM | TGI (RPMI-8226 leukemia): > 10 µM | TGI (SF-539 CNS): > 10 µM | TGI (ACHN renal): > 10 µM | TGI (HOP-62 NSCLC): > 10 µM | TGI (HCT-15 colon): > 10 µM | TGI (COLO 205 colon): > 10 µM | TGI (IGROV1 ovarian): > 10 µM

O=C(Nc1ccc(-n2cc(-c3ccncc3)c(-c3ccc(O)c(Cl)c3)n2)cc1)Nc1cccc(Cl)c1Cl
GI50 (SF-295 CNS): 6.13 µM | TGI (SF-295 CNS): > 32.5 µM | GI50 (HT29 colon): 3.87 µM | TGI (HT29 colon): 10.4 µM | GI50 (RPMI-8226 leukemia): 0.912 µM | TGI (RPMI-8226 leukemia): 6.08 µM | GI50 (SF-539 CNS): 2.04 µM | TGI (SF-539 CNS): 9.27 µM | GI50 (ACHN renal): 7.82 µM | TGI (ACHN renal): > 32.5 µM | GI50 (HOP-62 NSCLC): 10.6 µM | TGI (HOP-62 NSCLC): > 32.5 µM | GI50 (HCT-15 colon): 5.33 µM | TGI (HCT-15 colon): > 32.5 µM | GI50 (COLO 205 colon): 4.54 µM | TGI (COLO 205 colon): 13 µM | GI50 (IGROV1 ovarian): 14.5 µM | TGI (IGROV1 ovarian): > 32.5 µM

Cc1cc2nc(-c3cc(C(C)(C)C)c(O)c(C(C)(C)C)c3)[nH]c2cc1C
TGI (SF-295 CNS): > 100 µM | TGI (HT29 colon): > 100 µM | TGI (RPMI-8226 leukemia): > 100 µM | TGI (SF-539 CNS): > 100 µM | TGI (ACHN renal): > 24.6 µM | TGI (HOP-62 NSCLC): > 100 µM | TGI (HCT-15 colon): > 100 µM | TGI (COLO 205 colon): > 100 µM | TGI (IGROV1 ovarian): > 100 µM

COc1ccccc1N1CCN(CCCNC(=O)c2cc(Cl)c(N)c(Cl)c2)CC1
TGI (SF-295 CNS): 34.1 µM | TGI (HT29 colon): > 100 µM | TGI (RPMI-8226 leukemia): 54.5 µM | TGI (SF-539 CNS): > 100 µM | TGI (ACHN renal): > 100 µM | TGI (HOP-62 NSCLC): > 100 µM | TGI (HCT-15 colon): > 100 µM | TGI (IGROV1 ovarian): > 100 µM

COc1cc(CNc2nc3cc(C(F)(F)F)ccc3nc2-c2ccccc2)cc(OC)c1OC
TGI (SF-295 CNS): > 100 µM | TGI (HT29 colon): > 100 µM | TGI (RPMI-8226 leukemia): > 100 µM | TGI (SF-539 CNS): > 100 µM | TGI (ACHN renal): > 100 µM | TGI (HOP-62 NSCLC): > 100 µM | TGI (HCT-15 colon): 56 µM | TGI (COLO 205 colon): 37.3 µM | TGI (IGROV1 ovarian): > 100 µM

Cc1ccc(S(=O)(=O)NC(=O)NNc2ccc(F)cc2)cc1
TGI (SF-295 CNS): > 100 µM | TGI (HT29 colon): > 100 µM | TGI (RPMI-8226 leukemia): > 58.2 µM | TGI (SF-539 CNS): > 100 µM | TGI (ACHN renal): > 100 µM | TGI (HOP-62 NSCLC): > 100 µM | TGI (HCT-15 colon): > 100 µM | TGI (COLO 205 colon): > 100 µM | TGI (IGROV1 ovarian): > 100 µM

CC(C)(C)OC(=O)C1C(=O)NC(=O)CC1C(COCc1ccccc1)OCc1ccccc1 (stereo unspecified)
TGI (SF-295 CNS): 43.3 µM | TGI (HT29 colon): 37.1 µM | TGI (RPMI-8226 leukemia): 62.6 µM | TGI (SF-539 CNS): 40.6 µM | TGI (ACHN renal): 50.7 µM | TGI (HOP-62 NSCLC): 26.6 µM | TGI (HCT-15 colon): 54.5 µM | TGI (IGROV1 ovarian): 52.5 µM

O=C(CCc1cccc(O)c1)NCCCNC(=O)CCc1cccc(O)c1
TGI (SF-295 CNS): > 100 µM | TGI (HT29 colon): > 100 µM | TGI (RPMI-8226 leukemia): > 100 µM | TGI (SF-539 CNS): > 100 µM | TGI (ACHN renal): > 100 µM | TGI (HOP-62 NSCLC): > 100 µM | TGI (HCT-15 colon): > 100 µM | TGI (COLO 205 colon): > 100 µM | TGI (IGROV1 ovarian): > 100 µM

CN1COCc2cc3cc4c(cc3nc21)OCCO4
TGI (SF-295 CNS): > 100 µM | TGI (HT29 colon): > 100 µM | TGI (RPMI-8226 leukemia): 62.5 µM | TGI (SF-539 CNS): > 100 µM | TGI (ACHN renal): > 100 µM | TGI (HOP-62 NSCLC): > 100 µM | TGI (HCT-15 colon): > 100 µM | TGI (COLO 205 colon): > 100 µM | TGI (IGROV1 ovarian): > 100 µM

COC(=O)C1(Cc2ccc3c(c2)CCC3)Cc2ccccc2C1=O (stereo unspecified)
TGI (SF-295 CNS): 67.4 µM | TGI (HT29 colon): 30.3 µM | TGI (RPMI-8226 leukemia): 58.7 µM | TGI (SF-539 CNS): 32.9 µM | TGI (ACHN renal): > 100 µM | TGI (HOP-62 NSCLC): 59.3 µM | TGI (HCT-15 colon): > 100 µM | TGI (COLO 205 colon): 30.4 µM | TGI (IGROV1 ovarian): > 100 µM

Nc1nc(Nc2ccc(Cl)cc2)sc1C(=O)c1cccs1
TGI (HT29 colon): > 100 µM | TGI (RPMI-8226 leukemia): > 100 µM | TGI (SF-539 CNS): 61 µM | TGI (ACHN renal): > 100 µM | TGI (HOP-62 NSCLC): 53.6 µM | TGI (HCT-15 colon): > 100 µM | TGI (COLO 205 colon): > 100 µM | TGI (IGROV1 ovarian): > 100 µM

O=C(O)c1ccc2c(c1)CC1(C2)Cc2cc3c(cc2C1=O)CCC3 (stereo unspecified)
TGI (SF-295 CNS): > 100 µM | TGI (HT29 colon): > 100 µM | TGI (RPMI-8226 leukemia): > 100 µM | TGI (SF-539 CNS): > 100 µM | TGI (ACHN renal): > 100 µM | TGI (HOP-62 NSCLC): > 100 µM | TGI (HCT-15 colon): > 100 µM | TGI (COLO 205 colon): > 100 µM | TGI (IGROV1 ovarian): > 100 µM

COc1cc(OCc2ccc3nc(OC)c(OC)nc3c2)cc(OC)c1OC
TGI (SF-295 CNS): > 10 µM | TGI (HT29 colon): > 10 µM | TGI (RPMI-8226 leukemia): > 10 µM | TGI (SF-539 CNS): > 10 µM | TGI (ACHN renal): > 10 µM | TGI (HOP-62 NSCLC): > 10 µM | TGI (HCT-15 colon): > 10 µM | TGI (COLO 205 colon): > 10 µM | TGI (IGROV1 ovarian): > 10 µM

C=C(C)[C@@]1(O[Si](C)(C)C)CCCC[C@@H]1CC(Sc1ccccc1)Sc1ccccc1
TGI (SF-295 CNS): 25.5 µM | TGI (HT29 colon): 34.8 µM | TGI (RPMI-8226 leukemia): 49.3 µM | TGI (SF-539 CNS): 26.5 µM | TGI (ACHN renal): 28.8 µM | TGI (HOP-62 NSCLC): 27.5 µM | TGI (HCT-15 colon): 28.6 µM | TGI (COLO 205 colon): 38.9 µM | TGI (IGROV1 ovarian): 32.7 µM

CCOC(=O)C1(C(=O)OCC)CCCN1C(=O)[C@H](CNC(=O)OC(C)(C)C)NC(=O)OCc1ccccc1
TGI (SF-295 CNS): > 100 µM | TGI (HT29 colon): > 100 µM | TGI (RPMI-8226 leukemia): > 100 µM | TGI (SF-539 CNS): > 100 µM | TGI (ACHN renal): > 100 µM | TGI (HOP-62 NSCLC): > 100 µM | TGI (HCT-15 colon): > 100 µM | TGI (COLO 205 colon): > 100 µM | TGI (IGROV1 ovarian): > 100 µM

COC(=O)C1OC(O[C@H]2CC[C@]3(C)[C@H]4CC=C5[C@@H]6CC(C)(C)CC[C@]6(C(=O)OC6OCC(O)C(O)C6OC6OC(C)C(OC7OCC(OC8OCC(O)C(O)C8O)C(O)C7O)C(O)C6O)[C@H](O)C[C@@]5(C)[C@]4(C)CC[C@H]3C2(C)C)C(O)C(O)C1O (stereo partly specified)
TGI (SF-295 CNS): 8.66 µM | TGI (HT29 colon): 8.9 µM | TGI (RPMI-8226 leukemia): > 50.7 µM | TGI (SF-539 CNS): > 100 µM | TGI (ACHN renal): 11.9 µM | TGI (HOP-62 NSCLC): 13 µM | TGI (HCT-15 colon): 22.7 µM | TGI (COLO 205 colon): 3.09 µM | TGI (IGROV1 ovarian): 9.34 µM

OCC(O)C(O)C(O)/C=N/Nc1nc(O)c(/C=C2\C=Nc3ccccc32)[nH]1 (stereo unspecified)
TGI (SF-295 CNS): > 100 µM | TGI (HT29 colon): > 100 µM | TGI (RPMI-8226 leukemia): > 100 µM | TGI (SF-539 CNS): > 100 µM | TGI (ACHN renal): > 100 µM | TGI (HOP-62 NSCLC): > 100 µM | TGI (HCT-15 colon): > 100 µM | TGI (COLO 205 colon): > 100 µM | TGI (IGROV1 ovarian): > 100 µM

O=C(O)CC(NC(=O)/C(=C/c1ccccc1O)NC(=O)c1ccccc1)C(=O)O (stereo unspecified)
TGI (SF-295 CNS): > 100 µM | TGI (HT29 colon): > 100 µM | TGI (RPMI-8226 leukemia): > 100 µM | TGI (SF-539 CNS): > 100 µM | TGI (ACHN renal): > 100 µM | TGI (HOP-62 NSCLC): > 100 µM | TGI (HCT-15 colon): > 100 µM | TGI (COLO 205 colon): > 100 µM | TGI (IGROV1 ovarian): > 100 µM

CC(C)CCn1nc(N)c2nc3ccccc3nc21
TGI (SF-295 CNS): > 100 µM | TGI (HT29 colon): > 100 µM | TGI (RPMI-8226 leukemia): > 100 µM | TGI (SF-539 CNS): > 100 µM | TGI (ACHN renal): > 100 µM | TGI (HOP-62 NSCLC): > 100 µM | TGI (IGROV1 ovarian): > 100 µM

Nc1ccc2nc3n(c2c1)C(=O)c1ccccc1-3
TGI (SF-295 CNS): > 100 µM | TGI (HT29 colon): > 100 µM | TGI (RPMI-8226 leukemia): > 100 µM | TGI (SF-539 CNS): > 100 µM | TGI (ACHN renal): > 100 µM | TGI (HCT-15 colon): > 100 µM | TGI (COLO 205 colon): > 100 µM | TGI (IGROV1 ovarian): > 100 µM
